Measured values published in US4619925A, “3-Propenyl cephalosporin derivatives” (priority 1985, dated 1986).
Converted amounts (≈) assume the structure as drawn.

Assays:
[1] = Mouse blood levels; conditions: mouse; for half-life: T 1/2
From the text: Table 3 contains comparative blood level data for mice treated orally and intramuscularly with the hydroxyphenylglycyl derivatives.

[2] = system: H. influenzae A20177; assay: In vitro activity against fastidious bacteria; format: cell-based; conditions: Haemophilus influenzae; H. influenzae A20177; ampicillin-sensitive (ABPC-S); read-out: MIC
From the text: (§1) Table 5 contains comparative data for in vitro antibacterial activity against fastidious bacteria.

[3] = system: N. gonorrheae A15112; assay: In vitro activity against fastidious bacteria; format: cell-based; conditions: N. gonorrheae A15112; read-out: MIC
From the text: as §1

[4] = system: H. influenzae A22483; assay: In vitro activity against fastidious bacteria; format: cell-based; conditions: Haemophilus influenzae; H. influenzae A22483; ampicillin-sensitive (ABPC-S); read-out: MIC
From the text: as §1

[5] = system: H. influenzae A9833; assay: In vitro activity against fastidious bacteria; format: cell-based; conditions: Haemophilus influenzae; H. influenzae A9833; ampicillin-sensitive (ABPC-S); read-out: MIC
From the text: as §1

[6] = system: N. meningitidis A20048; assay: In vitro activity against fastidious bacteria; format: cell-based; conditions: Neisseria meningitidis; N. meningitidis A20048; read-out: MIC
From the text: as §1

[7] = system: S. pneumoniae Type II; assay: In vitro activity against fastidious bacteria; format: cell-based; conditions: Streptococcus pneumoniae; S. pneumoniae Type II; read-out: MIC
From the text: as §1

[8] = system: S. pyogenes A20065; assay: In vitro activity against fastidious bacteria; format: cell-based; conditions: Streptococcus pyogenes; S. pyogenes A20065; read-out: MIC
From the text: as §1

[9] = system: S. pyogenes s-23; assay: In vitro activity against fastidious bacteria; format: cell-based; conditions: Streptococcus pyogenes, S23; S. pyogenes s-23; read-out: MIC
From the text: as §1

[10] = system: H. influenzae A22491; assay: In vitro activity against fastidious bacteria; format: cell-based; conditions: Haemophilus influenzae, ampicillin-resistant (ABPC-R)
From the text: as §1

[11] = system: N. gonorrheae A20143; assay: In vitro activity against fastidious bacteria; format: cell-based; conditions: N. gonorrheae A20143; read-out: MIC
From the text: as §1

[12] = system: S. pyogenes A9604; assay: In vitro activity against fastidious bacteria; format: cell-based; conditions: Streptococcus pyogenes; S. pyogenes A9604; read-out: MIC
From the text: as §1

[13] = system: N. meningitidis A20049; assay: In vitro activity against fastidious bacteria; format: cell-based; conditions: Neisseria meningitidis; N. meningitidis A20049; read-out: MIC
From the text: as §1

[14] = system: H. influenzae A21523; assay: In vitro activity against fastidious bacteria; format: cell-based; conditions: Haemophilus influenzae; H. influenzae A21523; ampicillin-sensitive (ABPC-S); read-out: MIC
From the text: as §1

[15] = system: S. pyogenes A20201; assay: In vitro activity against fastidious bacteria; format: cell-based; conditions: Streptococcus pyogenes; S. pyogenes A20201; read-out: MIC
From the text: as §1

[16] = system: H. influenzae A20193; assay: In vitro activity against fastidious bacteria; format: cell-based; conditions: Haemophilus influenzae; H. influenzae A20193; ampicillin-sensitive (ABPC-S); read-out: MIC
From the text: as §1

[17] = system: S. pneumoniae Type III; assay: In vitro activity against fastidious bacteria; format: cell-based; conditions: Streptococcus pneumoniae; S. pneumoniae Type III; read-out: MIC
From the text: as §1

[18] = system: N. meningitidis A21487; assay: In vitro activity against fastidious bacteria; format: cell-based; conditions: Neisseria meningitidis; N. meningitidis A21487; read-out: MIC
From the text: as §1

[19] = system: H. influenzae A22157; assay: In vitro activity against fastidious bacteria; format: cell-based; conditions: Haemophilus influenzae, ampicillin-resistant (ABPC-R)
From the text: as §1

[20] = system: H. influenzae A22481; assay: In vitro activity against fastidious bacteria; format: cell-based; conditions: Haemophilus influenzae, ampicillin-resistant (ABPC-R)
From the text: as §1

[21] = system: N. meningitidis A21497; assay: In vitro activity against fastidious bacteria; format: cell-based; conditions: Neisseria meningitidis; N. meningitidis A21497; read-out: MIC
From the text: as §1

[22] = system: H. influenzae A9729; assay: In vitro activity against fastidious bacteria; format: cell-based; conditions: Haemophilus influenzae; H. influenzae A9729; ampicillin-sensitive (ABPC-S); read-out: MIC
From the text: as §1

[23] = system: S. pyogenes Dick; assay: In vitro activity against fastidious bacteria; format: cell-based; conditions: Streptococcus pyogenes; S. pyogenes Dick; read-out: MIC
From the text: as §1

[24] = system: N. gonorrheae A20154; assay: In vitro activity against fastidious bacteria; format: cell-based; conditions: N. gonorrheae A20154; read-out: MIC
From the text: as §1

[25] = system: N. meningitidis A21495; assay: In vitro activity against fastidious bacteria; format: cell-based; conditions: Neisseria meningitidis; N. meningitidis A21495; read-out: MIC
From the text: as §1

[26] = system: S. pneumoniae A15069; assay: In vitro activity against fastidious bacteria; format: cell-based; conditions: Streptococcus pneumoniae; S. pneumoniae A15069; read-out: MIC
From the text: as §1

[27] = system: S. pneumoniae A20759; assay: In vitro activity against fastidious bacteria; format: cell-based; conditions: Streptococcus pneumoniae; S. pneumoniae A20759; read-out: MIC
From the text: as §1

[28] = system: Gn-Ia organisms (Gram-negative bacteria sensitive to ampicillin and cephalothin); assay: In vitro activity, agar dilution, group of five strains; format: cell-based
From the text: Each of these groups of organisms is constituted of five individual strains of microorganism. The Gp-Ia organisms are Gram-positive staphylococci which are sensitive to penicillin. The Gp-Ib organisms are Gram-positive staphylococci which are resistant to penicillin and produce penicillinase. The Gn-Ia organisms are Gram-negative bacteria which are sensitive to ampicillin and cephalothin. The Gn-Ib organisms are Gram-negative bacteria which are resistant to ampicillin and cephalothin.

## C/C=C\C1=C(C(=O)O)N2C(=O)C(NC(=O)[C@H](N)c3ccc(O)cc3)[C@H]2SC1 (stereo partly drawn) [BMY-28100, 7-[D-2-amino-2-(4-hydroxyphenyl)acetamido]-3-[(Z)-1-propen-1-yl]-3-cephem-4-carboxylic acid]
[1]; blood, im, 20 mg/kg
  concentration at 10 min: 14000 ng/mL
  concentration at 20 min: 15000 ng/mL
  concentration at 0.5 h: 12000 ng/mL
  concentration at 40 min: 8500 ng/mL
  concentration at 50 min: 7500 ng/mL
  concentration at 1 h: 5400 ng/mL
  concentration at 1.5 h: 2500 ng/mL
  concentration at 2 h: 1600 ng/mL
[1]; blood, po, 20 mg/kg
  concentration at 0.5 h: 9300 ng/mL
  concentration at 1 h: 6900 ng/mL
  concentration at 2 h: 4200 ng/mL
  concentration at 3 h: 2500 ng/mL
  concentration at 4 h: 970 ng/mL
  concentration at 5 h: 810 ng/mL
  concentration at 6 h: 650 ng/mL
  concentration at 7 h: 340 ng/mL
[1]; blood, po, 100 mg/kg
  concentration at 0.5 h: 33000 ng/mL
  concentration at 1 h: 17000 ng/mL
  concentration at 2 h: 6500 ng/mL
  concentration at 3 h: 4500 ng/mL
  concentration at 4 h: 3300 ng/mL
  concentration at 5 h: 2700 ng/mL
  concentration at 6 h: 2500 ng/mL
  concentration at 7 h: 1700 ng/mL
[1]; in vivo, im, 20 mg/kg
  AUC: 13000 ng·h/mL
  half-life: 0.52 h
[1]; in vivo, po, 20 mg/kg
  Cmax: 12000 ng/mL
  T 1/2: 2.3 h
  AUC: 20000 ng·h/mL
  half-life: 1.4 h
[1]; in vivo, po, 100 mg/kg
  AUC: 51000 ng·h/mL
  half-life: 2.1 h
[2]
  MIC: 0.8 µg/mL (≈ 2.05 µM)
[3]
  MIC: 0.8 µg/mL (≈ 2.05 µM)
[4]
  MIC: 0.8 µg/mL (≈ 2.05 µM)
[5]
  MIC: 0.8 µg/mL (≈ 2.05 µM)
[6]
  MIC: 0.4 µg/mL (≈ 1.03 µM)
[7]
  MIC: 0.1 µg/mL (≈ 0.257 µM)
[8]
  MIC: 0.05 µg/mL (≈ 0.128 µM)
[9]
  MIC: 0.05 µg/mL (≈ 0.128 µM)
[10]
  MIC: 0.8 µg/mL (≈ 2.05 µM)
[11]
  MIC: 0.8 µg/mL (≈ 2.05 µM)
[12]
  MIC: 0.05 µg/mL (≈ 0.128 µM)
[13]
  MIC: 0.4 µg/mL (≈ 1.03 µM)
[14]
  MIC: 0.8 µg/mL (≈ 2.05 µM)
[15]
  MIC: 0.05 µg/mL (≈ 0.128 µM)
[16]
  MIC: 0.8 µg/mL (≈ 2.05 µM)
[17]
  MIC: 0.2 µg/mL (≈ 0.514 µM)
[18]
  MIC: 0.4 µg/mL (≈ 1.03 µM)
[19]
  MIC: 0.8 µg/mL (≈ 2.05 µM)
[20]
  MIC: 0.8 µg/mL (≈ 2.05 µM)
[21]
  MIC: 0.4 µg/mL (≈ 1.03 µM)
[22]
  MIC: 0.8 µg/mL (≈ 2.05 µM)
[23]
  MIC: 0.05 µg/mL (≈ 0.128 µM)
[24]
  MIC: 0.8 µg/mL (≈ 2.05 µM)
[25]
  MIC: 0.4 µg/mL (≈ 1.03 µM)
[26]
  MIC: 0.4 µg/mL (≈ 1.03 µM)
[27]
  MIC: 0.4 µg/mL (≈ 1.03 µM)
[28]
  activity relative to cephalexin and cefaclor: more active than cephalexin and slightly better than cefaclor
